The record followed here is patent publication US20250344734A1, “UNSATURATED FATTY ACIDS AND THEIR USE TO MODIFY TASTE” (Firmenich Incorporated, priority 2022, published 2025).

Common to all, as to assay type: cell-based
Test [1] deals with T1, T2R10 (TAS2R10) (Homo sapiens, UniProt Q9NYW0).
T1 construct: expressed in transfected cells; host or cells: cells expressing a promiscuous G protein (e.g., G16g44)
T1 sequence (Q9NYW0 1-307): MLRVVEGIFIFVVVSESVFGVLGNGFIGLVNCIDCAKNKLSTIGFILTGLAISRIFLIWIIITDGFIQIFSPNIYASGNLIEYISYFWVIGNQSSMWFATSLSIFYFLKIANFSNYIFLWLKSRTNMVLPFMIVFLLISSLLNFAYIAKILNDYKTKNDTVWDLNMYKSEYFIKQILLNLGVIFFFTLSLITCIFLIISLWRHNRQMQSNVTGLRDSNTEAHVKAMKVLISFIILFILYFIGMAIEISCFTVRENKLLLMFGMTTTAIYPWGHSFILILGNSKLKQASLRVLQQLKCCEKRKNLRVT
The experiment in a line: FLIPR calcium assay, block of bitter agonist response, T2R10. As to conditions: unsaturated fatty acid concentration of 200 µM, cells stimulated with known bitter agonist, read-out: percentage block of cellular response over baseline, 10. On the procedure:
(§1) Cells expressing a promiscuous […] (e.g., G16g44) were transfected with vectors encoding 18 functional bitter receptor cDNAs, with one receptor per transfection. The cells were transfected directly in 384-well format high-density plates and incubated for 28 hours. Later, cells were loaded with the Ca-specific dye Fluo4-AM. After an incubation of 60 minutes, excess dye is washed off, and cells are stimulated with a known bitter agonist for each receptor and various unsaturated fatty acids. Changes in intracellular fluorescence are recorded using a FLIPR instrument. Bitter antagonists and corresponding receptors are identified based on percentage inhibition of agonist's activity on a given receptor.
(§2) The above protocol was carried out using 16 different unsaturated fatty acids. A particular T2R receptor was identified as being antagonized by a particular unsaturated fatty acid if it triggered a >25% block of agonist's cellular response at 200 μM concentration of unsaturated fatty acid. […] Table 2 indicates the sixteen (16) compounds tested by their compound number from Table 1 above. The 18 bitter taste receptors screened are the human bitter taste receptors we named. T2R01 (TAS2R01), T2R03 (TAS2R03), T2R04 (TAS2R04), T2R07 (TAS2R07), T2R08 (TAS2R08), T2R09 (TAS2R09), T2R10 (TAS2R10), T2R13 (TAS2R13), T2R14 (TAS2R14), T2R16 (TAS2R16), T2R54 (TAS2R39, T2R61 (TAS2R43), T2R63 (TA2R20), T2R64 (TAS2R31), T2R65 (TAS2R19), T2R67 (TAS2R50), T2R71 (TAS2R41), and T2R75 (TAS2R46). The corresponding IUPHAR nomenclature for each receptor is given in parenthesis. In Table 2, these receptors are identified by the last two digits. For example, T2R01 is indicated as 01. Table 2 reports the percentage block of cellular response over baseline at an unsaturated fatty acid concentration of 200 µM.

Test [2] concerns the target T2, T2R08 (TAS2R08) (Homo sapiens, UniProt Q9NYW2).
T2 construct: expressed in transfected cells; host or cells: cells expressing a promiscuous G protein (e.g., G16g44)
T2 sequence (Q9NYW2 1-309): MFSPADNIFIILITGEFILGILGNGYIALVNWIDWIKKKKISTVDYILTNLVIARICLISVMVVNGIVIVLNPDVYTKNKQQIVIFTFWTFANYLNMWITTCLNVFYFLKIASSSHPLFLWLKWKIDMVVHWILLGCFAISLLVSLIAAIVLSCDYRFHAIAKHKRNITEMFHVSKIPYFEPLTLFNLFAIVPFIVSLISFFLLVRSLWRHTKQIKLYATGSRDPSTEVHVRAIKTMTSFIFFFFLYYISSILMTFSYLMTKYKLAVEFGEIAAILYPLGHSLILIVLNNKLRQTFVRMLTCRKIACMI
The experiment in a line: FLIPR calcium assay, block of bitter agonist response, T2R08. As to conditions: unsaturated fatty acid concentration of 200 µM, cells stimulated with known bitter agonist, read-out: percentage block of cellular response over baseline, 08. On the procedure: as §1, §2

The target in test [3] is T3, T2R01 (TAS2R01) (Homo sapiens, UniProt Q9NYW7).
T3 construct: expressed in transfected cells; host or cells: cells expressing a promiscuous G protein (e.g., G16g44)
T3 sequence (Q9NYW7 1-299): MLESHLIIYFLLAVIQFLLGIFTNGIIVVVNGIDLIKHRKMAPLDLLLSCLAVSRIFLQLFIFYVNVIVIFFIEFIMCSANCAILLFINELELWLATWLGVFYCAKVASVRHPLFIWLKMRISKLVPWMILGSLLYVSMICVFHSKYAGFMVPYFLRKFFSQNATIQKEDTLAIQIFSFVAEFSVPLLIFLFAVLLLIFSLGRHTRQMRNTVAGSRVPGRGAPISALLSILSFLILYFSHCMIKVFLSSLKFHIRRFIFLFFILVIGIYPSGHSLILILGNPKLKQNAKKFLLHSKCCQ
The experiment in a line: FLIPR calcium assay, block of bitter agonist response, T2R01. As to conditions: unsaturated fatty acid concentration of 200 µM, cells stimulated with known bitter agonist, read-out: percentage block of cellular response over baseline, 01. On the procedure:
as §1, §2

In test [4] the target is T4, T2R54 (TAS2R39 (Homo sapiens, UniProt P59534)).
T4 construct: expressed in transfected cells; host or cells: cells expressing a promiscuous G protein (e.g., G16g44)
T4 sequence (P59534 1-338): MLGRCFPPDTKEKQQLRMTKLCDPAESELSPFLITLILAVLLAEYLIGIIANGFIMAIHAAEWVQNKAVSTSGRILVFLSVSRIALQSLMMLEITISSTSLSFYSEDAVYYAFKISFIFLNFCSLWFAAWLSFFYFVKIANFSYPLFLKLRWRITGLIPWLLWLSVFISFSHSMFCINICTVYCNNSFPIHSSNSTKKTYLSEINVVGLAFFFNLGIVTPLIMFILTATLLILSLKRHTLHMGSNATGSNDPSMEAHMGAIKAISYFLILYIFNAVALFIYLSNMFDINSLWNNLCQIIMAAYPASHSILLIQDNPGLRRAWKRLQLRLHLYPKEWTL
The experiment in a line: FLIPR calcium assay, block of bitter agonist response, T2R54. The conditions noted are these: unsaturated fatty acid concentration of 200 µM, cells stimulated with known bitter agonist. On the procedure:
as §1, §2

The target in test [5] is T5, T2R75 (TAS2R46) (Homo sapiens, UniProt P59540).
T5 construct: expressed in transfected cells; host or cells: cells expressing a promiscuous G protein (e.g., G16g44)
T5 sequence (P59540 1-309): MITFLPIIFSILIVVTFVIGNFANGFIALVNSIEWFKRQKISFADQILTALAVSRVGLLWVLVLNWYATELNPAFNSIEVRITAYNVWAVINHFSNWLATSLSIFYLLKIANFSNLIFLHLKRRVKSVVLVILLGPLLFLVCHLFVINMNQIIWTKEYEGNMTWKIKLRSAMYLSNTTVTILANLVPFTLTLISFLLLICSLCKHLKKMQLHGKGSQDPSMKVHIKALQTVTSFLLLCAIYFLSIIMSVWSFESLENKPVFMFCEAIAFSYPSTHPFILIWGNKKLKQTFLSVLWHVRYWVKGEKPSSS
The experiment in a line: FLIPR calcium assay, block of bitter agonist response, T2R75. As to conditions: unsaturated fatty acid concentration of 200 µM, cells stimulated with known bitter agonist. On the procedure:
as §1, §2

Test [6] concerns the target T6, T2R14 (TAS2R14) (Homo sapiens, UniProt Q9NYV8).
T6 construct: expressed in transfected cells; host or cells: cells expressing a promiscuous G protein (e.g., G16g44)
T6 sequence (Q9NYV8 1-317): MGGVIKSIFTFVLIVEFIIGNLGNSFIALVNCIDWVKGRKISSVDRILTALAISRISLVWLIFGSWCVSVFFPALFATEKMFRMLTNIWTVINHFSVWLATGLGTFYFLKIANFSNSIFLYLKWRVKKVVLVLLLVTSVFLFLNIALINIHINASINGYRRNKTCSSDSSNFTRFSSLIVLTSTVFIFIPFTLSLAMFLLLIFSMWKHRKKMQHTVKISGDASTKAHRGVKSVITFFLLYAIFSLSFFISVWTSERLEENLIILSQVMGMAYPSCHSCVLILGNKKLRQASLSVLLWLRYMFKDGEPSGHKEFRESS
The experiment in a line: FLIPR calcium assay, block of bitter agonist response, T2R14. The conditions noted are these: unsaturated fatty acid concentration of 200 µM, cells stimulated with known bitter agonist, read-out: percentage block of cellular response over baseline, 14. On the procedure: as §1, §2

For `C=CCCCCCC(=O)O` [Compound 115], the inhibition at 200 µM in test [1] is more than 25%.

Take `C=CCCCCCCCC(=O)O` [Compound 117]: the inhibition at 200 µM was more than 55% in test [2], 50% in test [3], more than 70% in test [1] and more than 25% in test [6]. In test [4], the “percentage block of cellular response over baseline, 54” value (shortened to “percentage block … 54”) is reported as more than 80%. In addition, the “percentage block of cellular response over baseline, 75” value (“percentage block … 75” below) in test [5] turned out to be 40%.

Turning to `CCCCCC/C=C/C(=O)O` [Compound 104], the inhibition at 200 µM is more than 40% in test [2], more than 35% in test [3], more than 60% in test [1] and more than 40% in test [6].

As to `CC(C)=CCCC(C)CC(=O)O` (stereo not drawn) [Compound 127], the inhibition at 200 µM in test [3] is more than 30%; in test [1] it was 50%. For the same molecule, the “percentage block … 54” value in test [4] is reported as more than 90%. Besides, the “percentage block … 75” value in test [5] is 35%.

For `CCCCCC/C=C\CCCC(=O)O` [Compound 124], the inhibition at 200 µM in test [2] is more than 60%; in test [3], 55%; in test [1] it was more than 80%; in test [6], more than 50%.

On to `CCCCCCCC/C=C/C(=O)O` [Compound 106], for which the inhibition at 200 µM in test [2] is more than 70%; in test [3] it was 80%; in test [1] it was more than 95%; in test [6], 80%.

In the case of `CCCCCCCCC/C=C/C(=O)O` [Compound 107], the inhibition at 200 µM is more than 70% in test [2], 90% in test [3], more than 95% in test [1] and more than 90% in test [6].

For `CC(C)=CCCC(C)=CC(=O)O` [Compound 128], the inhibition at 200 µM in test [2] was more than 25%; in test [3], 50%; in test [1], more than 90%. The “percentage block … 54” value in test [4] was more than 80%. In addition, the “percentage block … 75” value in test [5] is 40%.

Consider `CCC/C=C/C(=O)O` [Compound 101], for which the inhibition at 200 µM in test [2] and in test [1] was more than 25% each time.

In the case of `C=CCCCCCCCCC(=O)O` [Compound 118], the inhibition at 200 µM in test [2] was 65%; in test [3] it was more than 70%; in test [1], more than 75%; in test [6], more than 65%. The “percentage block … 54” value in test [4] is more than 80%. Besides, in test [5], the “percentage block … 75” value came to 75%.

As to `CCCCCCC/C=C/C(=O)O` [Compound 105], the inhibition at 200 µM was more than 55% in test [2], more than 60% in test [3], more than 95% in test [1] and 50% in test [6].

Take `CC(C)/C=C/CCCCC(=O)O` [Compound 123]: the inhibition at 200 µM was more than 25% in test [2], more than 30% in test [1] and more than 25% in test [6].

Consider `C=CCCCCCCCCCCC(=O)O` [Compound 120], for which the inhibition at 200 µM in test [2] was 50%; in test [3], more than 50%; in test [1] it was more than 95%; in test [6], more than 40%.

Turning to `C=CCCCCCCC(=O)O` [Compound 116], the inhibition at 200 µM is more than 40% in test [2], more than 25% in test [3] and more than 35% in test [1].
